Laboratory results as given in PMC8249445, “Complex effects of macrolide venturicidins on bacterial F-ATPases likely contribute to their action as antibiotic adjuvants” (Scientific Reports, 2021).
Where two headings read alike, the source gives them in different places.

Experiments:
[1] = target: T1, FOF1-ATPase of WT E. coli membranes (Escherichia coli, UniProt P68699); assay: biochemical; assay type: biochemical; conditions: for Ki: read-out: Ki (early inhibition); for ATPase activity during the last 3 min of assays: 0.1 mM DCCD alone (trace 1)
T1 construct: To express haploid levels of EcFOF1 containing WT-ε or ε88-stop; expressed in transfected cells; host or cells: E. coli strain XH1 (chromosomal atpC deletion) carrying pMBε1; inverted membrane vesicles
Description: ATP hydrolysis is enzyme-coupled to conversion of NADH to NAD^+, which results in decreased light absorbance; thus, a larger rate of ATP hydrolysis is indicated by a steeper downward slope. The system also rapidly regenerates ATP, minimizing the concentration of product ADP during the assay. Unless noted, assays were preincubated to establish a steady state hydrolysis rate (see “Methods”) before the ‘zero’ point of measurements.
(§1) Plasmid pXH302S, which encodes the WT atpC gene and expresses near haploid levels of the ε subunit, was subjected to fusion PCR mutagenesis to construct plasmid pMBε1, with an N-terminal affinity tag ([…]) added prior to the initial Met residue. To express the ε88-stop subunit, an AfeI-ScaI restriction fragment of WT pMBε1 was replaced by the analogous fragment from pH6ε88-stop[46]. To express haploid levels of EcFOF1 containing WT-ε or ε88-stop, the appropriate version of pMBε1 was transformed into E. coli strain XH1, which has a chromosomal deletion of the atpC gene for ε[54]. For these transformed strains, cultures were grown and inverted membrane vesicles (IMV) were prepared according to [55]. WT ε, with the same N-terminal His6-tag, was over-expressed from pH6ε and purified as described.
ATP hydrolysis by membrane vesicles was assayed spectrophotometrically[57] at 30 °C using an open-chamber, diode array spectrophotometer (Hewlett Packard 8453 UV–Vis) as described in[29]. The assay medium (1 ml per assay) contained 20 mM Mops/Tris, pH 8.0, 0.2 mM EDTA, 10 mM CH3COOK, 1 mM ATP, 3.2 mM Mg(CH3COO)2, 1 mM phosphoenolpyruvate, at least 0.3 mM NADH, 0.1 mg/ml pyruvate kinase, 0.1 mg/ml lactate dehydrogenase, 5 mM KCN, and 5 μM carbonyl cyanide 4-(trifluoromethoxy)-phenylhydrazone. […] To avoid interference of this increase with the changes of ATPase activity induced by venturicidins, unless indicated otherwise, measurement of ATPase activities were started 60 min after addition of membranes to the complete assay medium. […] To keep absorbance between 1.5 and 2 units after the 60-min preincubation, up to 0.2 mM additional NADH was added to the assay medium. In figures displaying activity traces, some traces are shifted vertically for visual clarity.

F1 = target: F1; parameters: method as in PMID 23400782; conditions: read-out: KD of ε dissociation from F1; cited from earlier work
mitoFOF1 = test system: mitoFOF1; parameters: method as in PMID 124668; conditions: cited from earlier work
[2] = test system: FOF1 from M. smegmatis (MsFOF1); parameters: method as in PMID 33299175; conditions: cited from earlier work
[3] = target: T2, PaFOF1 in membranes from P. aeruginosa strain PAO1 (Pseudomonas aeruginosa, UniProt Q9HT15); assay: ATP hydrolysis by P. aeruginosa PAO1 membranes, enzyme-coupled spectrophotometric assay; assay type: biochemical
T2 construct: endogenous in cells; host or cells: P. aeruginosa strain PAO1, inverted membrane vesicles
Description: P. aeruginosa strain PAO1 was grown in LB medium at 37 °C as described. For preparation of IMV, final cultures used 1 L of LB per 2L baffled flask and were inoculated from an overnight culture at an initial OD600 ~ 0.025. Cultures were shaken at 250 rpm and monitored until they reached mid- to late-logarithmic growth phase (OD600, 1–1.4). Cultures were chilled and subsequent steps for cell lysis and isolation of IMV were done at 4 °C. Cells were sedimented by centrifugation (3,700 × g, 30 min). Cells from 1 to 2 L of culture (~ 2–3 g wet cells/L) were resuspended in 25–40 ml of STEM buffer (TEM buffer plus sucrose[55]), transferred to a 50 ml Oak Ridge tube, sedimented again (11,617 × g, 10 min), resuspended in 20–40 ml of STEM and frozen at -80 °C. Thawed cells were lysed by two sequential passages through an SLM-Aminco French pressure cell at ~ 16,000 psi, essentially as described for E. coli[55]; the pressure cell was enclosed in a clear biohazard bag (MiniGrip, IP2024B3T) during use to contain any aerosols formed. Unlysed cells and cell wall debris were removed by centrifugation (50 ml Oak Ridge tubes, 16,743 × g, 25 min): the supernate was diluted with MTGM7.5 buffer (50 mM MOPS-TRIS, 10%(v/v) glycerol, 5 mM Mg(CH3COO)2, pH 7.5) and centrifugation was repeated at least twice, recovering the supernate each time. The final supernatant lysate was stored at -80 °C. To isolate IMV, the cleared lysate was thawed quickly and diluted with MTGM7.5 as needed to fill 1 or 2 polycarbonate tubes for use in a Beckman Ti70 rotor. The IMV (membranes) were sedimented by ultracentrifugation (250,000 × g max) for 1 h, the membranes were resuspended in MTGM7.5 buffer to fill one Ti70 tube and ultracentrifugation was repeated for 45 min. The membranes were resuspended in a small volume of MTGM7.5 buffer (typically ≥ 10 mg membrane protein/ml) and homogenized manually (Potter–Elvehjem type). Small aliquots of the final membrane sample were quick-frozen in liquid nitrogen and stored at − 80 °C.
(§2) ATP hydrolysis by membrane vesicles was assayed spectrophotometrically[57] at 30 °C using an open-chamber, diode array spectrophotometer (Hewlett Packard 8453 UV–Vis) as described in[29]. The assay medium (1 ml per assay) contained 20 mM Mops/Tris, pH 8.0, 0.2 mM EDTA, 10 mM CH3COOK, 1 mM ATP, 3.2 mM Mg(CH3COO)2, 1 mM phosphoenolpyruvate, at least 0.3 mM NADH, 0.1 mg/ml pyruvate kinase, 0.1 mg/ml lactate dehydrogenase, 5 mM KCN, and 5 μM carbonyl cyanide 4-(trifluoromethoxy)-phenylhydrazone. As noted before, the rate of ATP hydrolysis by membranes increases to a small degree during assays. This is due, at least in part, to dissociation of a small fraction of EcF1 and/or ε from the membranes, since the increase is inhibited by added ε (e.g., Fig. 5). To avoid interference of this increase with the changes of ATPase activity induced by venturicidins, unless indicated otherwise, measurement of ATPase activities were started 60 min after addition of membranes to the complete assay medium. This minimizes further increases in ATPase rate during control assays to < 15%. To keep absorbance between 1.5 and 2 units after the 60-min preincubation, up to 0.2 mM additional NADH was added to the assay medium. In figures displaying activity traces, some traces are shifted vertically for visual clarity.

[4] = target: T3, E. coli membranes with FOF1 lacking the ε subunit's CTD (ε88-stop) (Escherichia coli, UniProt P68699); assay: ATP hydrolysis by ε88-stop E. coli membranes, enzyme-coupled spectrophotometric assay; assay type: biochemical
T3 construct: To express haploid levels of EcFOF1 containing WT-ε or ε88-stop; expressed in transfected cells; host or cells: E. coli strain XH1 (chromosomal atpC deletion) carrying the ε88-stop version of pMBε1; inverted membrane vesicles
Description: We next investigated whether the ε-inhibited state of EcFOF1 also impacts interactions of ventA with the enzyme. The N-terminal domain (NTD) of ε is required for FOF1 assembly and functional coupling of F1 to FO in eukaryotic and bacterial species; the C-terminal domain (CTD) of ε can auto-inhibit FOF1 and isolated F1 from some bacteria and from chloroplasts, but the mitochondrial homolog (δ) is not inhibitory[39],[40]. Thus we measured the effects of ventA on ATPase activity of E. coli membranes expressing ε88-stop, which lacks the autoinhibitory εCTD (Fig. 3). From Table 1 (100% ATPase values), it is clear that selenite activates membrane ATPase more (fourfold) for ε88-stop than for WT (2.8-fold). This is because, without the inhibitory εCTD, more enzyme complexes shift to the MgADP-inhibited state, which can be activated by selenite. […] In contrast, early inhibition of ATPase by ventA has similar Ki values for WT and ε88-stop membranes in the absence (0.7 vs 0.5 μM) or in the presence of selenite (0.23 vs 0.09 μM).
as §1, §2

E. coli membrane ATPase = conditions: read-out: half-maximal inhibitory concentration of venturicidin; obtained from earlier data; more divergent assay conditions; cited from earlier work
P. aeruginosa = test system: P. aeruginosa; parameters: method as in PMID 6406266; conditions: cited from earlier work
S. aureus = test system: S. aureus; parameters: method as in PMID 28874470; conditions: cited from earlier work
[5] = WT, 38.5 mM selenite (Fig. S1 panel B)

## ε: purified WT ε subunit of E. coli FOF1 with N-terminal His6-tag, added exogenously
[1]; 67 nM ε added after 9.5 μM ventA, 38.5 mM selenite (Fig. 5A #4)
  Late rate (last 3 min of assay): 0.28 U/mg
[1]; 67 nM ε, 38.5 mM selenite (Fig. 5A #2)
  Late rate (last 3 min of assay): 1.4 U/mg
[1]; excess ε (67 nM), without ventA, selenite present
  Immediate inhibition of ATPase activity: ~ 30%
[1]; excess ε added after 9.5 μM ventA, selenite present (Fig. 5A trace 4)
  Immediate inhibition of ventA-recovered ATPase activity: ~ 90%
F1
  Kd: < 0.001 µM

## CC[C@H]1/C=C/C=C/C[C@@H](C)[C@H](O)[C@@](C)(O)C(=O)[C@@H](C)[C@H](O)[C@@H](C)C(=O)[C@@H](C)[C@H](O)[C@@H](C)/C=C/C(=O)O[C@@H]2[C@H](C)[C@H](CC1)O[C@]1(CC[C@H](C)[C@H](C[C@@H](C)O)O1)[C@H]2C [oligomycin]
mitoFOF1
  Effect on ATPase activity of membrane and detergent-solubilized mitoFOF1: inhibited ATPase activity of both forms

## COc1nc2ccc(Br)cc2cc1[C@@H](c1ccccc1)[C@@](O)(CCN(C)C)c1cccc2ccccc12 [BDQ, bedaquiline]
[2]; micromolar BDQ
  Effect of micromolar BDQ on ATPase activity: most activity was restored
[2]; nanomolar BDQ
  Inhibition of ATPase: ~ 80%

## CCC(=O)C(C)C(O)C(C)CC(C)C1OC(=O)CC2(O)CC=C(C)C(O2)C(C)=CCCCC(OC2CC(O)C(O)C(C)O2)C=CC(C)CC1C (stereo not shown) [ventB, venturicidin B]
[1]; WT
  Reduction of Ki by selenite: 2.3 fold
[1]; [5]
  y0 (ATPase at saturating venturicidin): 28% (±7)
  y1 (venturicidin-sensitive ATPase, best fit of early rates): 73% (±6)
  Ki: 4 µM
[1]; WT, absence of selenite (Fig. S1 panel A), y0 fixed as 0
  y1 (venturicidin-sensitive ATPase, best fit of early rates): 136% (±7)
[1]; WT, with or without selenite
  Ki for inhibition of early rate relative to respective Ki of ventA: ≥ tenfold
[1]; WT, absence of selenite (Fig. S1 panel A)
  Ki: 9 µM

## [N-]=[N+]=[N-] [azide]
[1]; 6 µM azide in the assay
  Inhibition of ATPase activity: ~ 50%
[1]; WT + 6 μM azide
  100% ATPase (specific activity just before addition of ventA): 0.42 (± 0.02) U/mg
[3]; excess azide
  Inhibition of ATPase activity: 80–90%

## O=[Se](O)O [selenite]
[1]; WT + 38.5 mM selenite
  100% ATPase (specific activity just before addition of ventA): 2.3 (± 0.2) U/mg
[1]; optimal selenite (38.5 mM), WT membranes
  Stimulation of ATPase activity: 2.8 fold
[3]; selenite
  Activation of membrane ATPase: ~ fourfold
[4]; selenite, ε88-stop membranes
  Activation of membrane ATPase: fourfold
[4]; ε88stop + 38.5 mM selenite
  100% ATPase (specific activity just before addition of ventA): 3.4 (± 0.5) U/mg

## C(=NC1CCCCC1)=NC1CCCCC1 [DCCD, N,N′-dicyclohexylcarbodiimide]
[1]; 38.5 mM selenite
  ATPase activity during the last 3 min of assays: 0.85 U/mg
[1]; no selenite
  ATPase activity during the last 3 min of assays: 0.20 (± 0.02) U/mg
[1]; read-out: Inhibition of ATPase activity
  inhibition at 100 µM: 73%

## venturicidin
E. coli membrane ATPase
  IC50: ~7 µM
P. aeruginosa; anaerobic fermentation of L-arginine
  Decrease of cellular ATP: ~ tenfold
P. aeruginosa; anaerobic
  Time to eliminate Δψ and flagellar motility: ≤ 3.5 min
P. aeruginosa; during respiration
  Reduction of cellular ATP: ~ fivefold

## Oligomycin A
S. aureus
  Adjuvant activity for polymyxin B: potent adjuvant
